In patent US9695163B2, “Thiazole orexin receptor antagonists” (MERCK SHARP & DOHME CORP., priority 2013, dated 2017) one finds IC50 data, which are given here for 19 molecules.

Assay [1] has as its target human orexin-2 receptor (hOX2R) (Homo sapiens (Human), UniProt O43614). The assay can be described thus: FLIPR Ca2+ Flux Assay, CHO cells expressing human orexin-2 receptor. The conditions noted are these: agonist Ala-6,12 human orexin-A 70 pM. The assay is classed as cell-based. The method, then:
Briefly, for intracellular calcium measurements, Chinese hamster ovary (CHO) cells expressing the orexin-1 receptor (e.g., rat or human) or the orexin-2 receptor (e.g., rat or human), are grown in Iscove's modified DMEM containing 2 mM L-glutamine, […], 1% hypoxanthine-thymidine supplement, 100 U/ml penicillin, 100 μg/ml streptomycin and 10% heat-inactivated fetal calf serum (FCS). The cells are seeded at approximately 20,000 cells per well into 384-well clear bottom sterile plates coated with poly-D-lysine. The seeded plates are incubated overnight at 37° C. and 5% CO2. Human ala-6,12 orexin-A can be used as the agonist and prepared as a 1 mM stock solution in 1% bovine serum albumin (BSA) and diluted in assay buffer (HBSS containing 20 mM HEPES, 0.1% BSA and 2.5 mM probenecid, pH7.4) for use in the assay at a final concentration of 70 pM. Test compounds are prepared as 10 mM stock solution in DMSO, then diluted in 384-well plates, first in DMSO, then in assay buffer. On the day of the assay, cells are washed 3 times with 100 μl assay buffer and then incubated for 60 minutes (37° C., 5% CO2) in 60 μl assay buffer containing 1 μM Fluo-4 AM ester, 0.02% pluronic acid, and 1% BSA. The dye loading solution is then aspirated and cells are washed 3 times with 100 μl assay buffer. 30 μl of that same buffer is left in each well. Within the Fluorescent Imaging Plate Reader (FLIPR, Molecular Devices), test compounds are added to the plate in a volume of 25 μl, incubated for 5 minutes, and then 25 μl of agonist is added. Fluorescence is measured for each well at 1 second intervals for 5 minutes, and the height of each fluorescence peak is compared to the height of the fluorescence peak induced by 70 pM of agonist ala-6,12 orexin-A with buffer in place of test compound. IC50 value for the test compound is determined to be the concentration of compound needed to inhibit 50% of the agonist response. Alternatively, compound potency can be assessed using a radioligand binding assay (described in Bergman et. al., Bioorg. Med. Chem. Lett. 2008, 18:1425-1430) in which the inhibition constant (Ki) is determined in membranes prepared from CHO cells expressing either the OX1 or OX2 receptor. The intrinsic orexin receptor antagonist activity of a compound of the present invention may be determined by these assays. […]

Assay [2] addresses human orexin-1 receptor (hOX1R) (Homo sapiens (Human), UniProt O43613). In words: FLIPR Ca2+ Flux Assay, CHO cells expressing human orexin-1 receptor. The class given is cell-based. The conditions noted are these: agonist Ala-6,12 human orexin-A 70 pM. An excerpt: The utility of the compounds in accordance with the present invention as orexin receptor OX1R and/or OX2R antagonists may be readily determined without undue experimentation by methodology well known in the art, including the “FLIPR Ca^2+ Flux Assay” (Okumura et al., Biochem. Biophys. Res. Comm. 2001, 280:976-981). Briefly, for intracellular calcium measurements, Chinese hamster ovary (CHO) cells expressing the orexin-1 receptor (e.g., rat or human) or the orexin-2 receptor (e.g., rat or human), are grown in Iscove's modified DMEM containing 2 mM L-glutamine, […], 1% hypoxanthine-thymidine supplement, 100 U/ml penicillin, 100 μg/ml streptomycin and 10% heat-inactivated fetal calf serum (FCS). The cells are seeded at approximately 20,000 cells per well into 384-well clear bottom sterile plates coated with poly-D-lysine. The seeded plates are incubated overnight at 37° C. and 5% CO2. Human ala-6,12 orexin-A can be used as the agonist and prepared as a 1 mM stock solution in 1% bovine serum albumin (BSA) and diluted in assay buffer (HBSS containing 20 mM HEPES, 0.1% BSA and 2.5 mM probenecid, pH7.4) for use in the assay at a final concentration of 70 pM. Test compounds are prepared as 10 mM stock solution in DMSO, then diluted in 384-well plates, first in DMSO, then in assay buffer. On the day of the assay, cells are washed 3 times with 100 μl assay buffer and then incubated for 60 minutes (37° C., 5% CO2) in 60 μl assay buffer containing 1 μM Fluo-4 AM ester, 0.02% pluronic acid, and 1% BSA. The dye loading solution is then aspirated and cells are washed 3 times with 100 μl assay buffer. 30 μl of that same buffer is left in each well. Within the Fluorescent Imaging Plate Reader (FLIPR, Molecular Devices), test compounds are added to the plate in a volume of 25 μl, incubated for 5 minutes, and then 25 μl of agonist is added. Fluorescence is measured for each well at 1 second intervals for 5 minutes, and the height of each fluorescence peak is compared to the height of the fluorescence peak induced by 70 pM of agonist ala-6,12 orexin-A with buffer in place of test compound. IC50 value for the test compound is determined to be the concentration of compound needed to inhibit 50% of the agonist response. Alternatively, compound potency can be assessed using a radioligand binding assay (described in Bergman et. al., Bioorg. Med. Chem. Lett. 2008, 18:1425-1430) in which the inhibition constant (Ki) is determined in membranes prepared from CHO cells expressing either the OX1 or OX2 receptor. The intrinsic orexin receptor antagonist activity of a compound of the present invention may be determined by these assays.
Background: Calcium flux is commonly read through the fluorescence of an indicator in the cells.

human orexin-1 receptor (hOX1R), sequence (O43613 whole entry): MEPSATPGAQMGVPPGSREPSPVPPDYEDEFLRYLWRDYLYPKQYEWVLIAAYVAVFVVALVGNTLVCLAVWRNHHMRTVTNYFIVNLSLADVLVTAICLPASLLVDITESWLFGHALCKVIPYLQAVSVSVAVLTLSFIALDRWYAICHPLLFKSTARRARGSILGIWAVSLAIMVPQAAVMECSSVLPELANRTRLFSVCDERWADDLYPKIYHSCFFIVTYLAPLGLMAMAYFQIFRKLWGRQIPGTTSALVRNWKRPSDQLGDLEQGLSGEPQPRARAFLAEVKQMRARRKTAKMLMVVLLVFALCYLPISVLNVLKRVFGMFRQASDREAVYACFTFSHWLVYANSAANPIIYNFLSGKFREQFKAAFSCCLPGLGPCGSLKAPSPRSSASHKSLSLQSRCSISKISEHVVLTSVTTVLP
human orexin-2 receptor (hOX2R), sequence (O43614 whole entry): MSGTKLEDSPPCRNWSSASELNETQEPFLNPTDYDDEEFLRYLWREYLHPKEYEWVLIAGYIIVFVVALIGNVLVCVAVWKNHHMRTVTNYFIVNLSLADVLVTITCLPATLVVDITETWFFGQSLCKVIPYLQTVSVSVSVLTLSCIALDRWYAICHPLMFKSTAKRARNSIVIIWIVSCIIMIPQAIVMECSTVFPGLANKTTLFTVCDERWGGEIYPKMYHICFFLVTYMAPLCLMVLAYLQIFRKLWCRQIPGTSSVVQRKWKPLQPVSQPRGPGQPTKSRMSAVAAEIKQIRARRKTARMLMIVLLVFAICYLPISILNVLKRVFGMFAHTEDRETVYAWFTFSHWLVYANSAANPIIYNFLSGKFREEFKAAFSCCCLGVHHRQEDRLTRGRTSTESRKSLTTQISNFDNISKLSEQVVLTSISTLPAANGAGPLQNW

On to “((2R,5R)-5-(4-(2-Hydroxypropan-2-yl)-5- methylthiazol-2-yl)-2-methylpiperidin-1- yl)(2-(pyrimidin-2-yl)thiophen-3- yl)methanone [Example 27]”, for which the IC50 (in general, the concentration that gives 50% inhibition) was 87 nM in assay [1] and 700 nM in assay [2].

In the case of `C[C@@H]1CC[C@@H](c2csc(C(C)(C)O)n2)CN1C(=O)c1ccccc1C1(C#N)CC1` [Example 30, 1-(2-((2R,5R)-5-(2-(2-hydroxypropan-2-yl)thiazol-4-yl)-2-methylpiperidine-1-carbonyl)phenyl)cyclopropanecarbonitrile], the IC50 in assay [1] is 13 nM; in assay [2] it was 1200 nM.

In the case of `C[C@@H]1CC[C@@H](c2csc(C(C)(C)O)n2)CN1C(=O)c1ccsc1-c1ncccn1` [Example 31, ((2R,5R)-5-(2-(2-hydroxypropan-2-yl)thiazol-4-yl)-2-methylpiperidin-1-yl)(2-(pyrimidin-2-yl)thiophen-3-yl)methanone], the IC50 in assay [1] is 90 nM; in assay [2], greater than 10000 nM.

`C[C@@H]1CC[C@@H](c2csc(C(C)(C)O)n2)CN1C(=O)c1ccccc1CS(C)(=O)=O` [Example 34, ((2R,5R)-5-(2-(2-hydroxypropan-2-yl)thiazol-4-yl)-2-methylpiperidin-1-yl)(2-((methylsulfonyl)methyl)phenyl)methanone]: the IC50 in assay [1] is 40 nM; in assay [2], greater than 10000 nM.

In the case of `C[C@@H]1CC[C@@H](c2nc(C(C)(C)O)cs2)CN1C(=O)c1ccccc1-n1ncnn1` [Example 14, (2-(2H-Tetrazol-2-yl)phenyl)((2R,5R)-5-(4-(2-hydroxypropan-2-yl)thiazol-2-yl)-2-methylpiperidin-1-yl)methanone], the results for the IC50 in assay [1] and in assay [2] were 21 nM and greater than 10000 nM, respectively.

For the molecule `Cc1sc([C@@H]2CC[C@@H](C)N(C(=O)c3cscc3-c3ncccn3)C2)nc1C(C)(C)O` [Example 28, ((2R,5R)-5-(4-(2-Hydroxypropan-2-yl)-5-methylthiazol-2-yl)-2-methylpiperidin-1-yl)(4-(pyrimidin-2-yl)thiophen-3-yl)methanone], the figures for the IC50 in assay [1] and in assay [2] were 29 nM and 900 nM, respectively.

On to `C[C@@H]1CC[C@@H](c2csc(C(C)(C)O)n2)CN1C(=O)c1ccsc1-n1nccn1` [Example 37, (2-(2H-1,2,3-Triazol-2-yl)thiophen-3-yl)((2R,5R)-5-(2-(2-hydroxypropan-2-yl)thiazol-4-yl)-2-methylpiperidin-1-yl)methanone], for which the IC50 in assay [1] worked out at 16 nM; in assay [2] it was 7200 nM.

For the molecule `C[C@@H]1CC[C@@H](c2nc(C(C)(C)O)cs2)CN1C(=O)c1ccc(F)cc1-n1nccn1` [Example 13, (4-fluoro-2-(2H-1,2,3-triazol-2-yl)phenyl)((2R,5R)-5-(4-(2-hydroxypropan-2-yl)thiazol-2-yl)-2-methylpiperidin-1-yl)methanone], the IC50 in assay [1] is 19 nM; in assay [2] it was 2250 nM.

As to `C[C@@H]1CC[C@@H](c2nc([C@@H](O)C(F)F)cs2)CN1C(=O)c1ccccc1-n1nccn1` [Example 8], the IC50 in assay [1] is 133 nM; in assay [2], greater than 10000 nM.

As to `C[C@@H]1CC[C@@H](c2csc(C(C)(C)O)n2)CN1C(=O)c1cscc1-n1nccn1` [Example 35, (4-(2H-1,2,3-triazol-2-yl)thiophen-3-yl)((2R,5R)-5-(2-(2-hydroxypropan-2-yl)thiazol-4-yl)-2-methylpiperidin-1-yl)methanone], the results for the IC50 in assay [1] and in assay [2] were 14 nM and greater than 10000 nM, respectively.

In the case of `C[C@@H]1CC[C@@H](c2csc(C(C)(C)O)n2)CN1C(=O)c1ccc(F)cc1-n1nccn1` [Example 38, (4-Fluoro-2-(2H-1,2,3-triazol-2-yl)phenyl)((2R,5R)-5-(2-(2-hydroxypropan-2-yl)thiazol-4-yl)-2-methylpiperidin-1-yl)methanone], the IC50 turned out to be 14 nM in assay [1] and 2050 nM in assay [2].

With `Cc1sc([C@@H]2CC[C@@H](C)N(C(=O)c3ccccc3-c3ncccn3)C2)nc1C(C)(C)O` [Example 23, ((2R,5R)-5-(4-(2-Hydroxypropan-2-yl)-5-methylthiazol-2-yl)-2-methylpiperidin-1-yl)(2-(pyrimidin-2-yl)phenyl)methanone], the IC50 in assay [1] turned out to be 27 nM; in assay [2], 600 nM.

On to `C[C@@H]1CC[C@@H](c2nc(C(C)(C)O)cs2)CN1C(=O)c1cscc1-c1ncccn1` [Example 16, ((2R,5R)-5-(4-(2-hydroxypropan-2-yl)thiazol-2-yl)-2-methylpiperidin-1-yl)(4-(pyrimidin-2-yl)thiophen-3-yl)methanone], for which the IC50 in assay [1] was 25 nM; in assay [2], 1000 nM.

Take `CCOC(=O)c1cnc([C@@H]2CC[C@@H](C)N(C(=O)c3ccccc3-n3nccn3)C2)s1` [Example 1, Ethyl 2-((3R,6R)-1-(2-(2H-1,2,3-triazol-2-yl)benzoyl)-6-methylpiperidin-3-yl)thiazole-5-carboxylate]: the figures for the IC50 in assay [1] and in assay [2] were 1510 nM and greater than 10000 nM, respectively.

On to `C[C@@H]1CC[C@@H](c2csc(C(C)(C)O)n2)CN1C(=O)c1cscc1-c1ncccn1` [Example 32, ((2R,5R)-5-(2-(2-hydroxypropan-2-yl)thiazol-4-yl)-2-methylpiperidin-1-yl)(4-(pyrimidin-2-yl)thiophen-3-yl)methanone], for which the IC50 was 130 nM in assay [1] and greater than 10000 nM in assay [2].

`C[C@@H]1CC[C@@H](c2csc(C(C)(C)O)n2)CN1C(=O)c1ccccc1-c1ncccn1` [Example 33, ((2R,5R)-5-(2-(2-hydroxypropan-2-yl)thiazol-4-yl)-2-methylpiperidin-1-yl)(2-(pyrimidin-2-yl)phenyl)methanone]: the results for the IC50 in assay [1] and in assay [2] were 102 nM and greater than 10000 nM, respectively.

As for `Cc1sc([C@@H]2CC[C@@H](C)N(C(=O)c3ccccc3-n3nccn3)C2)nc1C(C)(C)O` [Example 19, (2-(2H-1,2,3-Triazol-2-yl)phenyl)((2R,5R)-5-(4-(2-hydroxypropan-2-yl)-5-methylthiazol-2-yl)-2-methylpiperidin-1-yl)methanone], the values for the IC50 in assay [1] and in assay [2] were 14 nM and 330 nM, respectively.

Consider `Cc1sc([C@@H]2CC[C@@H](C)N(C(=O)c3ccsc3-n3nccn3)C2)nc1C(C)(C)O` [Example 20, (2-(2H-1,2,3-triazol-2-yl)thiophen-3-yl)((2R,5R)-5-(4-(2-hydroxypropan-2-yl)-5-methylthiazol-2-yl)-2-methylpiperidin-1-yl)methanone], for which the IC50 in assay [1] turned out to be 12 nM; in assay [2], 970 nM.

Take `C[C@@H]1CC[C@@H](c2csc(C(C)(C)O)n2)CN1C(=O)c1ccccc1-n1ncnn1` [Example 29, (2-(2H-Tetrazol-2-yl)phenyl)((2R,5R)-5-(2-(2-hydroxypropan-2-yl)thiazol-4-yl)-2-methylpiperidin-1-yl)methanone]: the IC50 in assay [1] came out at 15 nM.
